In ChEMBL document CHEMBL5291721, “A preclinical secondary pharmacology resource illuminates target-adverse drug reaction associations of marketed drugs” (Nat Commun, 2023):

Tests used:
[1] = target: Muscarinic acetylcholine receptor M3 (Homo sapiens, UniProt P20309)
Histamine H1 receptor = Histamine H1 receptor (Homo sapiens, UniProt P35367)
[2] = target: T1, Alpha-1A adrenergic receptor (Homo sapiens, UniProt P35348); assay type: functional, cell-based
T1 sequence (P35348 whole entry): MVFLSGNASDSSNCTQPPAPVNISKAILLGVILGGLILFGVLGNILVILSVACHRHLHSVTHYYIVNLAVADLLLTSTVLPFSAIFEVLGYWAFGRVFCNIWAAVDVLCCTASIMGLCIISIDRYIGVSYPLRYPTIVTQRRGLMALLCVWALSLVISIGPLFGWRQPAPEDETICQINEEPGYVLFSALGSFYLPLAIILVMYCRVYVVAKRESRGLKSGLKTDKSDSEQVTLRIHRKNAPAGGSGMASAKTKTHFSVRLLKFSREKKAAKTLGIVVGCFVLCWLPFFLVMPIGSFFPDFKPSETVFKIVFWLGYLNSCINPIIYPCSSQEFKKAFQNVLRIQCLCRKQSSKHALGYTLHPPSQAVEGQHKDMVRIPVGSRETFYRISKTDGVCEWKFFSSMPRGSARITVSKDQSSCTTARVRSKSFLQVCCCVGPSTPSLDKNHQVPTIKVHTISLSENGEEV

Endothelin-1 receptor = target: T2, Endothelin-1 receptor (Homo sapiens, UniProt P25101)
T2 sequence (P25101 whole entry): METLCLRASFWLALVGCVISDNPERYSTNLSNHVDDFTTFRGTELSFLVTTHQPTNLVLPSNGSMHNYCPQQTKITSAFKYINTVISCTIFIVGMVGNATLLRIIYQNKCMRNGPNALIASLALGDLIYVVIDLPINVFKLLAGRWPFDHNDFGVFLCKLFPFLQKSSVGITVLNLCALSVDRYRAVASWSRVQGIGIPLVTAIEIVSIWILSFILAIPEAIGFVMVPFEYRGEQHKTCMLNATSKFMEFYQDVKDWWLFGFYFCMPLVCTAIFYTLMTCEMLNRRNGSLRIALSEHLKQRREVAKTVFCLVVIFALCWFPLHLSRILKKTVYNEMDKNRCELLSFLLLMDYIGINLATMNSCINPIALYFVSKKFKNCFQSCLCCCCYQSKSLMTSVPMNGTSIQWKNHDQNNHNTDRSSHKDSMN

[3] = target: Voltage-dependent L-type calcium channel subunit alpha-1C (Rattus norvegicus, UniProt P22002); assay type: functional
Estrogen receptor = target: T3, Estrogen receptor (Homo sapiens, UniProt P03372)
T3 sequence (P03372 whole entry): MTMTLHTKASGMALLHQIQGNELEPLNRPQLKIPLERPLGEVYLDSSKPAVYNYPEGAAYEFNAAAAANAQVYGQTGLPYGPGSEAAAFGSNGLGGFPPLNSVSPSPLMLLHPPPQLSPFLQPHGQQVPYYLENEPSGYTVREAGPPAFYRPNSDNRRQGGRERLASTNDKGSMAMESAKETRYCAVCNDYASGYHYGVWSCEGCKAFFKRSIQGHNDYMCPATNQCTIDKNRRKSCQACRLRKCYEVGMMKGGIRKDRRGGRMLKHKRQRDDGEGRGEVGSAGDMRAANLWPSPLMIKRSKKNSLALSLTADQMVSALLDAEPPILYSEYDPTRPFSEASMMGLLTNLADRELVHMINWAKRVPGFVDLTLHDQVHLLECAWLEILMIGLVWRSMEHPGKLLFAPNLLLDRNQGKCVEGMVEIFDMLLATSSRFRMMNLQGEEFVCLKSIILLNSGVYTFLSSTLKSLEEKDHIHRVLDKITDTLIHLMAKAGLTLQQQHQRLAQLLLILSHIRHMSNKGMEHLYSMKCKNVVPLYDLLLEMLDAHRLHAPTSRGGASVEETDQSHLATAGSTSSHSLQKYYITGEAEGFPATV

Progesterone receptor = target: T4, Progesterone receptor (Homo sapiens, UniProt P06401)
T4 sequence (P06401 whole entry): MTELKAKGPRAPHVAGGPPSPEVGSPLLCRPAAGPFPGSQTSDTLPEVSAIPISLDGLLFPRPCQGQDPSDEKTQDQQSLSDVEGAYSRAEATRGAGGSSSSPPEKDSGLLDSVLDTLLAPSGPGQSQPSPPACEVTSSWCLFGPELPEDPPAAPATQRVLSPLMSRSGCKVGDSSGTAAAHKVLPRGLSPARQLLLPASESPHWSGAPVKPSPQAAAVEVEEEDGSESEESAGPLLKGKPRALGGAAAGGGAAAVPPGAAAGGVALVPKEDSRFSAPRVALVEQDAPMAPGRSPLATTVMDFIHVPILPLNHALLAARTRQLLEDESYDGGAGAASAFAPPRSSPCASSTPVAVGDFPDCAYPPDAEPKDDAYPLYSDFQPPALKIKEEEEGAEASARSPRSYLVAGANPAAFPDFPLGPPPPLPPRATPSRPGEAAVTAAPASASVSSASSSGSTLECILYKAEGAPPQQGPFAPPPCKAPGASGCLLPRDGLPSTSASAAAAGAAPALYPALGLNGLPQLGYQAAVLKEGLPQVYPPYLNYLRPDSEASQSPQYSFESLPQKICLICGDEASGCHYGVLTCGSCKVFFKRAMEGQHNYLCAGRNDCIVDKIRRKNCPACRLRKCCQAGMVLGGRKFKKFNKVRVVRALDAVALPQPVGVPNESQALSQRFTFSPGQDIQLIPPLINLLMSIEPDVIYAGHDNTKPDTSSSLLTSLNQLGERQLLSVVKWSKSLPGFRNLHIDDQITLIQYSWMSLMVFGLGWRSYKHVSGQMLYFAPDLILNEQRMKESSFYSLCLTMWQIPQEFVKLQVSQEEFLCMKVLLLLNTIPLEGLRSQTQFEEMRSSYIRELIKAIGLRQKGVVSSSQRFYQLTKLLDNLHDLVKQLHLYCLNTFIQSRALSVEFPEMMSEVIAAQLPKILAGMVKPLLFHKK

[4] = target: Sodium-dependent noradrenaline transporter (Homo sapiens, UniProt P23975)
Note: assay procedure not described here.

Chain of Muscarinic acetylcholine receptor M3 (P20309 whole entry): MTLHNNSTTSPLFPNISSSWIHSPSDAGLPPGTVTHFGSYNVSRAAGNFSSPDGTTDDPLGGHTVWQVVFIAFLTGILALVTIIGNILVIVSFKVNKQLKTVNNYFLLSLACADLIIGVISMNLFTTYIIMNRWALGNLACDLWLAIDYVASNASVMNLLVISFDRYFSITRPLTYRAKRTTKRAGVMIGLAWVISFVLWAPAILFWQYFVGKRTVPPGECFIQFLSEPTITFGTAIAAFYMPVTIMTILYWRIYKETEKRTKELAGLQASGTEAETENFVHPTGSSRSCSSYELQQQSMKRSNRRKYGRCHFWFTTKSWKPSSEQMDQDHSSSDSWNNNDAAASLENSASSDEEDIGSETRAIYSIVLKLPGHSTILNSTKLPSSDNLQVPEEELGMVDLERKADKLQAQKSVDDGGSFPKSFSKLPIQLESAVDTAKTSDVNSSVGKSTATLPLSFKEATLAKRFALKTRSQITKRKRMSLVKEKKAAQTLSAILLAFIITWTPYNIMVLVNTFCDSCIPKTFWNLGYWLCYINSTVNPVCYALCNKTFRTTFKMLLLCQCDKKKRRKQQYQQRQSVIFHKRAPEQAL
Chain of Sodium-dependent noradrenaline transporter (P23975 whole entry): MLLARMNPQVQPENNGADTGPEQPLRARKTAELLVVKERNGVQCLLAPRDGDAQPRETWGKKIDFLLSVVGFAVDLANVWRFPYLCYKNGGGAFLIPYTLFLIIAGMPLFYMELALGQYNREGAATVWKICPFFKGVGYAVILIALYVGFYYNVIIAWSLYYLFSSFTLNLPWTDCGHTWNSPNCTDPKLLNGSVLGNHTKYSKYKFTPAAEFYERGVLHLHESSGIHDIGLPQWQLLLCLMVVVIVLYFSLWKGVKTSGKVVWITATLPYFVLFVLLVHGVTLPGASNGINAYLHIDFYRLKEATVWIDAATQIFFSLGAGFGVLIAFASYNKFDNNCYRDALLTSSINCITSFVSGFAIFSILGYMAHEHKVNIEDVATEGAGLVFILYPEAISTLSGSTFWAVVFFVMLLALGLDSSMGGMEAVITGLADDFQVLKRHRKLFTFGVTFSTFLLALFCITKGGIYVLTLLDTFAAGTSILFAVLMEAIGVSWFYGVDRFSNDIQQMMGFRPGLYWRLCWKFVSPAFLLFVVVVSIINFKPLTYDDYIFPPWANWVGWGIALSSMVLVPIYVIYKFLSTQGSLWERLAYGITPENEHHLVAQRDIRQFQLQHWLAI
Chain of Histamine H1 receptor (P35367 whole entry): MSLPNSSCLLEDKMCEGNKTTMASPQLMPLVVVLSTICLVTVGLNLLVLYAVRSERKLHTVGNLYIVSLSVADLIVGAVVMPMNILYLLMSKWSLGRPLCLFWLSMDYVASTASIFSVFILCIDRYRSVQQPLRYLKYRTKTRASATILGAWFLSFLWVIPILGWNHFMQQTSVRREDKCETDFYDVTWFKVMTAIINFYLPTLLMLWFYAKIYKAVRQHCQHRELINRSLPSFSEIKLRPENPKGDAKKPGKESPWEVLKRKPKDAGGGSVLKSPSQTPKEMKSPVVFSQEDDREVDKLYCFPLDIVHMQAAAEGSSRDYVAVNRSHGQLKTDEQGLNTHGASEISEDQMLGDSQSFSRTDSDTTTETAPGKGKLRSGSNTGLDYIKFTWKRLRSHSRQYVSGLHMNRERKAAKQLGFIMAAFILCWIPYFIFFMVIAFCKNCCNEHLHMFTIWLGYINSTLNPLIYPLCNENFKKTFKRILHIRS
Chain of Voltage-dependent L-type calcium channel subunit alpha-1C (P22002 whole entry): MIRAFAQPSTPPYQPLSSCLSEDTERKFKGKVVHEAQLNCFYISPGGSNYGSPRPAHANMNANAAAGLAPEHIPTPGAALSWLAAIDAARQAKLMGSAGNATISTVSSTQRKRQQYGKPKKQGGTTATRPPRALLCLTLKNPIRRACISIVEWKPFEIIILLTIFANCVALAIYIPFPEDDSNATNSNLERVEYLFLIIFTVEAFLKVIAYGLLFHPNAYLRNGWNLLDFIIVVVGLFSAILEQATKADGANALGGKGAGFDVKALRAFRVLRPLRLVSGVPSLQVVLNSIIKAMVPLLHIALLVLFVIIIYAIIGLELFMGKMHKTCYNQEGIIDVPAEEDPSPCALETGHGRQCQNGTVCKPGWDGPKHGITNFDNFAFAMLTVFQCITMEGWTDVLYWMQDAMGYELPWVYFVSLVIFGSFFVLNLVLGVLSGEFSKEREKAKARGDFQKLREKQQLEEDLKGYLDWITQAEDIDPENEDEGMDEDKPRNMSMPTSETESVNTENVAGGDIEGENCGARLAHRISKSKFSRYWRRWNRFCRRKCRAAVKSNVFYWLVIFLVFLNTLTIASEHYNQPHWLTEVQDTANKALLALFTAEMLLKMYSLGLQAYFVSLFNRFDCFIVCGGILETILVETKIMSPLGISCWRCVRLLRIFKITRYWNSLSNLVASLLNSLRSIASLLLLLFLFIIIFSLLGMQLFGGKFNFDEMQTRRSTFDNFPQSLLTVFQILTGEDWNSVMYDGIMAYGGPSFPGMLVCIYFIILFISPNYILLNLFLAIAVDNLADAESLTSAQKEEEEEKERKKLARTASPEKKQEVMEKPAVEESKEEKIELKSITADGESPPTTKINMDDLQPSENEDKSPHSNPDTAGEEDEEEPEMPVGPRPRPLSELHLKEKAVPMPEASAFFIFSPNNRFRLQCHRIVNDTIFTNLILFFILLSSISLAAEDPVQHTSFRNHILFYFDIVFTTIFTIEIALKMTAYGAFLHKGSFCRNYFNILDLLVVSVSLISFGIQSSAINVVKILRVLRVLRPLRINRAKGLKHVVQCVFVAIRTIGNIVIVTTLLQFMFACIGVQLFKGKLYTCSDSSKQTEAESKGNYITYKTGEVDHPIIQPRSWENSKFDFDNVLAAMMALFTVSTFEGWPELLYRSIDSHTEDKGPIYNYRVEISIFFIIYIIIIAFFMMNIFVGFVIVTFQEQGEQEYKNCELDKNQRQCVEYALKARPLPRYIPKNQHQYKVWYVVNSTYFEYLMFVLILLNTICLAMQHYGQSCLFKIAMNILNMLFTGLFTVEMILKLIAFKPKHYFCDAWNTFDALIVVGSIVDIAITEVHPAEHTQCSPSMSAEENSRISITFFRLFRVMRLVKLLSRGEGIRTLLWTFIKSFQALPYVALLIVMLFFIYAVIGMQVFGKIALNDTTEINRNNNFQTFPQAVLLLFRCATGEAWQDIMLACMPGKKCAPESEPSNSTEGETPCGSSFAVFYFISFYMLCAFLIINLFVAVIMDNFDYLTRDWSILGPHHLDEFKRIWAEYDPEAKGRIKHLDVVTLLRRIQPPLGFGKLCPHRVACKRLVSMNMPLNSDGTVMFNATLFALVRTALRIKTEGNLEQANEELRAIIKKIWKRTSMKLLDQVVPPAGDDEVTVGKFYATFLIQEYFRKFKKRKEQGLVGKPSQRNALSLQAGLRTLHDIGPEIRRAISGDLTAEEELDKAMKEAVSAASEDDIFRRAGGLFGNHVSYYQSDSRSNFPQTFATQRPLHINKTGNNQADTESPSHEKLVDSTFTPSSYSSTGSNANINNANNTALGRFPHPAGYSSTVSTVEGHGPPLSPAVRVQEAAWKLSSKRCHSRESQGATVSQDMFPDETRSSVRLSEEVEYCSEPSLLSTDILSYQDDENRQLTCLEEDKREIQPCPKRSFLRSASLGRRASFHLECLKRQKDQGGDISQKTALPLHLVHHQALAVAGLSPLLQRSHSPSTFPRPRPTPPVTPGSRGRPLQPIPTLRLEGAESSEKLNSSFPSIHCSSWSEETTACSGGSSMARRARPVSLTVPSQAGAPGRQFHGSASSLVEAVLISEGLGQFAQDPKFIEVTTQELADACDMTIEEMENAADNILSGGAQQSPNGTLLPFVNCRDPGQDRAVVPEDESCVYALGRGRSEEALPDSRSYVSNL

Compound | AC50 [1] [µM] | AC50 (Histamine H1 receptor) [µM] | AC50 [2] [µM] | AC50 (Endothelin-1 receptor) [µM] | AC50 [3] [µM] | AC50 (Estrogen receptor) [µM] | AC50 (Progesterone receptor) [µM] | AC50 [4] [µM]
COC(=O)N[C@H](C(=O)N1CCC[C@H]1c1nc(-c2ccc(-c3ccc(-c4c[nH]c([C@@H]5CCCN5C(=O)[C@@H](NC(=O)OC)C(C)C)n4)cc3)cc2)c[nH]1)C(C)C | > 30 | > 30 | > 30 | > 30 | > 30 | > 30 | – | –
CN(CCOc1ccc(NS(C)(=O)=O)cc1)CCc1ccc(NS(C)(=O)=O)cc1 [DOFETILIDE] | > 10 | > 10 | > 30 | > 30 | – | > 30 | > 30 | > 30
CO/N=C(\C(=O)N[C@@H]1C(=O)N2C(C(=O)[O-])=C(C[N+]3(C)CCCC3)CS[C@H]12)c1csc(N)n1 | > 300 | > 300 | > 300 | > 300 | > 30 | > 30 | – | –
OCCN1CCN(CCCN2c3ccccc3C=Cc3ccccc32)CC1 [OPIPRAMOL] | > 30 | 0.081 | > 30 | > 30 | – | > 30 | > 30 | 6.62
O=C(CCCCCCC(=O)Nc1ccccc1)NO [VORINOSTAT] | > 30 | > 30 | > 30 | > 30 | > 10 | > 30 | – | –
CCCS(=O)(=O)Nc1ccc(F)c(C(=O)c2c[nH]c3ncc(-c4ccc(Cl)cc4)cc23)c1F [VEMURAFENIB] | > 30 | > 30 | > 30 | > 30 | > 30 | > 30 | – | –
CC(C(=O)O)c1ccc(N2CC=CC2)c(Cl)c1 (centres undefined) [PIRPROFEN] | > 10 | > 10 | > 30 | > 30 | > 10 | > 30 | > 30 | > 30
COc1ccc2c(c1)C(=O)N(CCc1ccc(S(=O)(=O)NC(=O)NC3CCCCC3)cc1)C(=O)C2(C)C [GLIQUIDONE] | > 30 | > 30 | > 30 | > 30 | > 30 | > 30 | – | –
COc1cc2c(cc1OC)C(=O)C(CC1CCN(Cc3ccccc3)CC1)C2 (centres undefined) [DONEPEZIL] | > 30 | > 10 | – | > 30 | > 10 | > 30 | > 30 | 9.13
O=C(NC[C@H]1CN(c2ccc(N3CCOCC3=O)cc2)C(=O)O1)c1ccc(Cl)s1 [RIVAROXABAN] | > 30 | > 30 | > 30 | – | – | – | > 30 | > 30
